Legend:
CYP2C9 = CYP2C9 (Homo sapiens, UniProt P11712); experiment: CYP2C9 inhibition (fluorescent substrate MFC); format: in vitro ADME; details: read-out: Cyp IC50 (μM) 2C9
Description: (§1) CYP (Cytochrome P450) enzymes are the major drug metabolizing enzymes present in the liver. The inhibition of CYP enzyme activity (IC50) for each of CYP1A2, CYP2C19, CYP2C9, CYP2D6, CYP3A4(BFC) and CYP3A4(BQ) is determined for compounds, where inhibition of metabolism of a known substrate leads to a decrease in the fluorescence of the metabolized product. The fluorescence of the product is monitored as a function of compound concentration. Compounds are dissolved in dimethyl sulfoxide to a concentration of 100 mM. These are diluted […], into 82 μL of acetonitrile. An 11 μL aliquot of this solution is then added to 204 μL of cofactor mix (1.3% NADPH Regeneration system Solution A, 1.04% NADPH Regeneration system Solution B from BD Biosciences, 5% acetonitrile and 0.05% dimethyl sulfoxide). These are then serially diluted 1:1 (160 μL to 160 μL co-factor mix) for a total of 10 points. A 10 μL aliquot of this final mixture is dispensed into 384 well assay plates and incubated for 10 minutes at 37° C. Enzyme and substrate mix (10 μL; 0.5 pmol CYP1A2/5 μM CEC; 1.0 pmol CYP2C9/75 μM MFC; 0.5 pmol CYP2C19/25 μM CEC; 1.5 pmol CYP2D6/1.5 μM AMMC; 1.0 pmol CYP3A4/50 μM BFC; or 1.0 pmol CYP3A4/40 μM BQ) is added to these assay plates. Assay plates are incubated at 37° C. (CYP1A2-15 min; CYP2C9-45 min; CYP2C19, 2D6 and 3A4-30 min) and read in a Tecan Safire 2 plate reader (CYP1A2, 2C19 and 3A4 409 ex/460 em; CYP2C9 and 2D6 409 ex/530 em). The signal versus compound concentration is used to determine the IC50. The enzymes and substrates for this assay are obtained from BD Biosciences.

[1] = Relative solubility by turbidity in aqueous buffers (pH 1.5, 4.5, 6.8, 7.4); format: physicochemical; details: for turbidity threshold (L, M, H) 1.4: pH 1.5 buffer (SGF); for turbidity threshold (L, M, H) 4.5: pH 4.5 buffer (SIF); for turbidity threshold (L, M, H) 6.8: pH 6.8 buffer (SIF); for turbidity threshold (L, M, H) 7.4: pH 7.4 buffer (HEPES)
Outline: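 2-fold DMSO dilution series from 25 mM stocks were added to SGF (0.5M NaCl, pH 1.5), SIF (0.05M NaH2PO4, pH 4.5/6.8) or HEPES (10 mM, 150 mM NaCl, pH 7.4). Absorbance at 490, 535 and 650 nm; value is the concentration crossing OD 0.01, averaged over wavelengths. Low <31.3 μM, moderate 31.3–250 μM, high >250 μM.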

CYP2D6 = CYP2D6 (Homo sapiens, UniProt P10635); experiment: CYP2D6 inhibition (fluorescent substrate AMMC); format: in vitro ADME; details: read-out: Cyp IC50 (μM) 2D6
Description: as §1

CYP1A2 = biological target: T1, CYP1A2 (Homo sapiens, UniProt P05177); experiment: CYP1A2 inhibition (fluorescent substrate CEC); format: in vitro ADME; details: read-out: Cyp IC50 (μM) 1A2
T1 sequence (P05177 1-516): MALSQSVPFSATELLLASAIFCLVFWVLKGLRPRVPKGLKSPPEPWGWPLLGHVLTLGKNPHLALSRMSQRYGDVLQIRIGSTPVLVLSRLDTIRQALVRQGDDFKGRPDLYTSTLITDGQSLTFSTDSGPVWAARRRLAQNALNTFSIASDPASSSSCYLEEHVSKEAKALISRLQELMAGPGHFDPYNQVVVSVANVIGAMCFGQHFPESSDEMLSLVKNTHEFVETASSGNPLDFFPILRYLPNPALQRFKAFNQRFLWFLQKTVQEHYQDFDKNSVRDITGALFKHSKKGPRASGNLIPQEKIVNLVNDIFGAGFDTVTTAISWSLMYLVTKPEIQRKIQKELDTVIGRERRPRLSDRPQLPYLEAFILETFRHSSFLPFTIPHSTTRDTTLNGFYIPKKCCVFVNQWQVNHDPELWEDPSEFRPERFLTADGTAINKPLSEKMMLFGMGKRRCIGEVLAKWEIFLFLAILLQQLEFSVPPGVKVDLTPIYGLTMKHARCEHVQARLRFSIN
Description: as §1

c-Raf-1 = c-Raf-1 (Homo sapiens, UniProt P04049); experiment: c-Raf-1 kinase activity assay (AlphaScreen, biotin-MEK1 substrate); details: 100 μM ATP, 100 nM biotin-MEK1, 45 minutes at room temperature; read-out: Biochemical activity (IC50 μM) c-Raf-1
Outline: (§2)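 AlphaScreen detection of phospho-MEK1 uses anti-phospho-MEK1/2 antibody and donor/acceptor beads, incubated 3 h. The kinase step runs 45 min at room temperature with 0.1 ng enzyme, 100 nM biotin-MEK1 and 100 μM ATP in 50 mM HEPES pH 7.0. IC50 is derived from eight compound concentrations.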

CYP3A4(BFC) = CYP3A4(BFC) (Homo sapiens, UniProt P08684); experiment: CYP3A4 inhibition (substrate BFC); format: in vitro ADME; details: read-out: Cyp IC50 (μM) 3A4(BFC)
Description: as §1

CYP3A4(BQ) = CYP3A4(BQ) (Homo sapiens, UniProt P08684); experiment: CYP3A4 inhibition (substrate BQ); format: in vitro ADME; details: read-out: Cyp IC50 (μM) 3A4(BQ)
Description: as §1

CYP2C19 = CYP2C19 (Homo sapiens, UniProt P33261); experiment: CYP2C19 inhibition (fluorescent substrate CEC); format: in vitro ADME; details: read-out: Cyp IC50 (μM) 2C19
Description: as §1

B-Raf = B-Raf (Homo sapiens, UniProt P15056); experiment: B-Raf kinase activity assay (AlphaScreen, biotin-MEK1 substrate); details: 100 μM ATP, 100 nM biotin-MEK1, 45 minutes at room temperature; read-out: Biochemical activity (IC50 μM) B-Raf
Outline: as §2

B-Raf V600E = B-Raf V600E (Homo sapiens, UniProt P15056, V600E); experiment: B-Raf V600E kinase activity assay (AlphaScreen, biotin-MEK1 substrate); details: 100 μM ATP, 100 nM biotin-MEK1, 45 minutes at room temperature, read-out: Biochemical activity (IC50 μM) V600E
Outline: as §2

CYP2C9, sequence (P11712 whole entry): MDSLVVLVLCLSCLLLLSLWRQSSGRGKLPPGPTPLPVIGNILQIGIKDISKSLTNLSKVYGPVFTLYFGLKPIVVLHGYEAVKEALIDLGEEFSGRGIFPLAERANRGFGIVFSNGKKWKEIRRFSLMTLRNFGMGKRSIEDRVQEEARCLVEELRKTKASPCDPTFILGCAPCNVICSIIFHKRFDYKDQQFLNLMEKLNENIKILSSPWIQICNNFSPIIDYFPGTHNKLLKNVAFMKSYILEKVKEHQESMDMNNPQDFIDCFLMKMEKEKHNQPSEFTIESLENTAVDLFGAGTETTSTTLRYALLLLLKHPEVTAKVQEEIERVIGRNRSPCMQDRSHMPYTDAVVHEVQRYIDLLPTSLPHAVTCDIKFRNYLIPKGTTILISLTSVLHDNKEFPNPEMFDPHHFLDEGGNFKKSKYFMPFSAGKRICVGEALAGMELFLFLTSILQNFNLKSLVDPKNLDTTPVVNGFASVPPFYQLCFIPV
CYP2C19, sequence (P33261 whole entry): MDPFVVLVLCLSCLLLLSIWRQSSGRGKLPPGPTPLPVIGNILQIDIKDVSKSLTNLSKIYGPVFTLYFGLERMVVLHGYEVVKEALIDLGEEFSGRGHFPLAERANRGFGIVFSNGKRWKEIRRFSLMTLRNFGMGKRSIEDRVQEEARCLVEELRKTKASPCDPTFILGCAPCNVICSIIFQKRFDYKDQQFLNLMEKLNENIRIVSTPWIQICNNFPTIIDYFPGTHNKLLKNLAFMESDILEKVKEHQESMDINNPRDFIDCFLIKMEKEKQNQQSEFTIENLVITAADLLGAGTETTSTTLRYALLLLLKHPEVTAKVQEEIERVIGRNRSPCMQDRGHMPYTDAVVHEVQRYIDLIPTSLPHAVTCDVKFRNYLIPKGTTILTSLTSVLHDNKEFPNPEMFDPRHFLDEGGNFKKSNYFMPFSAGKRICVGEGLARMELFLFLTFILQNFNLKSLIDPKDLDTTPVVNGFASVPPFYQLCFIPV
CYP2D6, sequence (P10635 whole entry): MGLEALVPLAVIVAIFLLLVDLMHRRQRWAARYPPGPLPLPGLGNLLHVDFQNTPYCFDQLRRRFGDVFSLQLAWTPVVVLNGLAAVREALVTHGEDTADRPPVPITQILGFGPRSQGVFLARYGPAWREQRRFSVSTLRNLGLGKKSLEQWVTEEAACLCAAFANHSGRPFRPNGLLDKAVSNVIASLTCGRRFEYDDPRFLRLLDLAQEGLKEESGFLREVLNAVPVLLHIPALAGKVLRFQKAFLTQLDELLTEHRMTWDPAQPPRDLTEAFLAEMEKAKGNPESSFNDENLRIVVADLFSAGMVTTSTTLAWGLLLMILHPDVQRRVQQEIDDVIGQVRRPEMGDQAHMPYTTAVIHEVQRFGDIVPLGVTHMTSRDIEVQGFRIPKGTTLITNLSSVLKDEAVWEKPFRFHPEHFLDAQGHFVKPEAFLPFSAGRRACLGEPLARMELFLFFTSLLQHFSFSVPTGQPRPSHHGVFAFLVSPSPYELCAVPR
CYP3A4(BFC), sequence (P08684 whole entry): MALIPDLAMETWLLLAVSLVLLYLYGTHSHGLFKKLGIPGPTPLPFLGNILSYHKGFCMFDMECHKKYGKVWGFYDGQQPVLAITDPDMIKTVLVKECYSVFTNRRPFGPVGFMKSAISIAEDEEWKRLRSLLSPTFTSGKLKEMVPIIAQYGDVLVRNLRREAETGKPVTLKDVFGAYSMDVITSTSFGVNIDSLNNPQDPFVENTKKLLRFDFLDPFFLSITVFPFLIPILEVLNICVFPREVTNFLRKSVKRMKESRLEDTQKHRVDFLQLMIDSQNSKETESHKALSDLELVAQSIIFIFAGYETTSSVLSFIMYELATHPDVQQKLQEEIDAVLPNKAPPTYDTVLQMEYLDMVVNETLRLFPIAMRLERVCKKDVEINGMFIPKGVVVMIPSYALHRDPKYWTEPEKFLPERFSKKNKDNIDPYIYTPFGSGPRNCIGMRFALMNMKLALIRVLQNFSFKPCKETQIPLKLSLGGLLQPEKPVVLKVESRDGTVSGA
CYP3A4(BQ), sequence (P08684 whole entry): as above
c-Raf-1, sequence (P04049 whole entry Y340D/Y341D, form open): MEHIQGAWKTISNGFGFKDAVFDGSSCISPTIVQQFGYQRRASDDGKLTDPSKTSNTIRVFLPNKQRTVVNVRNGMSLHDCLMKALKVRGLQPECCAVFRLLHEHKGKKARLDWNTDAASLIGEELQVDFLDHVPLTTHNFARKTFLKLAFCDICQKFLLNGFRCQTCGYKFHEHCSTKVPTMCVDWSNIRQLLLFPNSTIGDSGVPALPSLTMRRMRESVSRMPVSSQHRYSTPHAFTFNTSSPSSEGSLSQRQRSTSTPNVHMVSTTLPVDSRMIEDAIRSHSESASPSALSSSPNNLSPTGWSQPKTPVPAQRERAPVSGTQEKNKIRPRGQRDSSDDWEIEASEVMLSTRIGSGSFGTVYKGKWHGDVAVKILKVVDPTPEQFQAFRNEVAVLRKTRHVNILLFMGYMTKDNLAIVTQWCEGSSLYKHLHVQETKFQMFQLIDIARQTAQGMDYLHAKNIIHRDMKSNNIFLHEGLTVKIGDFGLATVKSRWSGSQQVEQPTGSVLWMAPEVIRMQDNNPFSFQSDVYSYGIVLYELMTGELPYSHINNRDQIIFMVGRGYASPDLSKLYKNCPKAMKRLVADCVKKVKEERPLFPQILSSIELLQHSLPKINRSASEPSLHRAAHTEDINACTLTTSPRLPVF
B-Raf, sequence (P15056 whole entry): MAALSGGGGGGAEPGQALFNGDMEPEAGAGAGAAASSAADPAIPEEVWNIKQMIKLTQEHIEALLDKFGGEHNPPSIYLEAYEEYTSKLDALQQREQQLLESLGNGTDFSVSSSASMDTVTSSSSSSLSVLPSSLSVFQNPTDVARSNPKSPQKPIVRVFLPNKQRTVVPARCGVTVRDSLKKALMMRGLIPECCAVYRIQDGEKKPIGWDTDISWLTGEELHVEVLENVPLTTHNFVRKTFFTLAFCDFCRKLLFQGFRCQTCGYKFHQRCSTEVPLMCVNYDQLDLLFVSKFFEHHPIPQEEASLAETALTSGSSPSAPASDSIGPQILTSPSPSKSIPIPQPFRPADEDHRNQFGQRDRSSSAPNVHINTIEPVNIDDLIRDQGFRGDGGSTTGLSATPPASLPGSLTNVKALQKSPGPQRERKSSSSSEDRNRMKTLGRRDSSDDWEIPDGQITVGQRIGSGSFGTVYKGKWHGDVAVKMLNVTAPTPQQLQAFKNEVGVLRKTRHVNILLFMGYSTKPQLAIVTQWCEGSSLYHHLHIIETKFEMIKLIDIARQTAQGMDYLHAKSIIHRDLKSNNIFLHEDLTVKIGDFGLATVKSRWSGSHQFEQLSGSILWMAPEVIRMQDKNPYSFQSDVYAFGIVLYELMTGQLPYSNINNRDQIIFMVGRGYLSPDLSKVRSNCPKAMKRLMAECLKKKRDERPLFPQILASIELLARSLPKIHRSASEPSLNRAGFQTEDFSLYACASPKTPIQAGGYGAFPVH
B-Raf V600E, sequence (P15056 whole entry V600E): as the sequence (P15056 whole entry) above, with V600E counted along it

| IC50 (CYP2C9) | IC50 (CYP2D6) | IC50 (CYP1A2) | IC50 (c-Raf-1) | IC50 (CYP3A4(BFC)) | IC50 (CYP3A4(BQ)) | IC50 (CYP2C19) | IC50 (B-Raf) | IC50 (B-Raf V600E) | SMILES | turbidity threshold (L, M, H) 1.4 [1] | turbidity threshold (L, M, H) 4.5 [1] | turbidity threshold (L, M, H) 6.8 [1] | turbidity threshold (L, M, H) 7.4 [1] |
| --- | --- | --- | --- | --- | --- | --- | --- | --- | --- | --- | --- | --- | --- |
| > 10 µM | > 10 µM | > 10 µM | < 0.1 µM | 5 to 10 µM | > 10 µM | 5 to 10 µM |  |  | CCCS(=O)(=O)Nc1ccc(F)c(C(=O)c2c[nH]c3ncc(-c4cnn(C5CCN(C(=O)OC(C)(C)C)CC5)c4)cc23)c1F [P-1001, 4-(4-{3-[2,6-Difluoro-3-(propane-1-sulfonylamino)-benzoyl]-1H-pyrrolo[2,3-b]pyridin-5-yl}-pyrazol-1-yl)-piperidine-1-carboxylic acid tert-butyl ester] | M (moderate solubility if the threshold concentration is 31.3 μM to 250 μM) | L (low solubility if the threshold concentration is <31.3 μM) | M (moderate solubility if the threshold concentration is 31.3 μM to 250 μM) | L (low solubility if the threshold concentration is <31.3 μM) |
| > 10 µM | > 10 µM | > 10 µM | < 0.1 µM | > 10 µM | > 10 µM | > 10 µM | < 0.1 µM | < 0.1 µM | COc1ccc(-c2cnc3[nH]cc(C(=O)c4c(F)ccc(NS(=O)(=O)c5cc(F)ccc5F)c4F)c3c2)cn1 [P-1404, N-{2,4-Difluoro-3-[5-(6-methoxy-pyridin-3-yl)-1H-pyrrolo[2,3-b]pyridine-3-carbonyl]-phenyl}-2,5-difluoro-benzenesulfonamide] |  |  |  |  |
| < 5 µM | > 10 µM | > 10 µM |  | < 5 µM | > 10 µM | > 10 µM |  |  | O=C(c1c(F)ccc(NS(=O)(=O)c2cc(F)ccc2F)c1F)c1c[nH]c2ncc(-c3cnc(NC4CC4)nc3)cc12 [P-1506, N-{3-[5-(2-Cyclopropylamino-pyrimidin-5-yl)-1H-pyrrolo[2,3-b]pyridine-3-carbonyl]-2,4-difluoro-phenyl}-2,5-difluoro-benzenesulfonamide] | L (low solubility if the threshold concentration is <31.3 μM) | L (low solubility if the threshold concentration is <31.3 μM) | L (low solubility if the threshold concentration is <31.3 μM) | L (low solubility if the threshold concentration is <31.3 μM) |
| > 10 µM | > 10 µM | > 10 µM |  | > 10 µM | > 10 µM | > 10 µM |  |  | COc1ncc(-c2cnc3[nH]cc(C(=O)c4cccc(NS(=O)(=O)c5ccccc5F)c4F)c3c2)cn1 [P-1518, 2-Fluoro-N-{2-fluoro-3-[5-(2-methoxy-pyrimidin-5-yl)-1H-pyrrolo[2,3-b]pyridine-3-carbonyl]-phenyl}-benzenesulfonamide] | L (low solubility if the threshold concentration is <31.3 μM) | L (low solubility if the threshold concentration is <31.3 μM) | L (low solubility if the threshold concentration is <31.3 μM) | L (low solubility if the threshold concentration is <31.3 μM) |

Reference: patent publication US9440969B2, “Compounds and methods for kinase modulation, and indications therefor” (PLEXXIKON INC., priority 2009, dated 2016)
